{"source": "patent US6130342A", "about": "“CYP2D fluorescent assay reagents” (Gentest Corporation, priority 1999, dated 2000)", "key": {"CYP2D6 [1]": {"biological_target": "T1, CYP2D6 (Homo sapiens, UniProt P10635)", "experiment": "biochemical", "description": "The substrates, compounds of Formula I, were prepared in pH 7.4 potassium phosphate buffer or acetonitrile. […] The 12 wells in a row were used for one test. Wells 1 to 8 contained serial 1:3 dilutions of the inhibitors. Wells 9 and 10 contained no inhibitor and rows 11 and 12 were blanks for background fluorescence (stop solution added before the enzyme). After substrate and inhibitor addition, the plates were prewarmed to 37° C. Incubations were initiated by the addition of prewarmed enzyme and cofactors. […] Data was exported and analyzed using an Excel spreadsheet."}, "[2]": {"test_system": "other human cytochromes P450", "conditions": "Crespi et al. 1997; cited from earlier work"}, "CYP2D6 [3]": {"test_system": "CYP2D6", "conditions": "Crespi et al. 1997; cited from earlier work"}, "[4]": {"test_system": "panel of human P450 enzymes", "experiment": "Selectivity in a panel of cDNA-expressed P450 enzymes (dealkylation)", "assay_type": "biochemical", "conditions": "FIGS. 1, 2, and 3", "procedure": "The selectivity of various P450 isoforms for dealkylation of compounds Ia, Ib and Ic was examined using a panel of commercially available human cDNA-expressed enzymes. A substrate that is selective for a single P450 isoform (substrate is catalytically turned over by a single P450 isoform) is a desirable trait in that its activity may be examined within a heterogeneous mixture of enzymes, for example, in human liver microsomes.\nExample Compounds Ia, Ib and Ic. Compounds Ia, Ib and Ic were incubated as described in the examples (1) above except that the enzyme source consisted of one each of several different commercially available, baculovirus/insect cell expressed human cytochrome P450 enzymes (SUPERSOME®, GENTEST Corporation)."}, "CYP2D6 [5]": {"biological_target": "T1, CYP2D6", "experiment": "Enzyme kinetics with cDNA-expressed CYP2D6 (fluorometric)", "assay_type": "biochemical", "design": "purchased GENTEST Corporation P217; host or cells: baculovirus/insect cell (SUPERSOMES)", "procedure": "(§1) The evaluation of compounds of Formula I were initially performed by measuring the kinetics of turnover using cDNA-expressed CYP2D6. Vmax and Km values are important for the optimization of the assay conditions and for setting the parameters for inhibition experiments. […] However, compounds Ib and Ic, contain the 4-trifluoromethyl group (R4) which shifts the fluorescent properties of these molecules to longer wavelengths.\n(§2) Example Compound Ia. […] The substrate, compound Ia, was prepared in pH 7.4 potassium phosphate buffer (0.1 M). […] The final cofactor concentrations were 0.0082 mM NADP, 0.41 mM glucose-6-phosphate and 0.2 U/ml glucose-6-phosphate dehydrogenase. Final incubation volume was 0.2 ml. […] The activity was quantified by comparing to a standard curve of 3-[2-(N,N-diethylamino)ethyl]-7-hydroxy-4-methylcoumarin hydrochloride. Apparent Km and Vmax values were calculated by non-linear kinetics using SigmaPlot 4.0 software.\n(§3) Example Compounds Ib and Ic. The following procedure applies to compounds Ib and Ic as substrates. […] The substrates, Ib and Ic, were prepared in acetonitrile. […] Final incubation volume was 0.2 ml. […] The enzyme activity was quantified by comparing to a standard curve of 3-[2-(N, N-diethyl-N-methylammonium)ethyl]-7-hydroxy-4-trifluoromethylcoumarin iodide (compound IIb) when assaying for metabolism of Ib or 3-[2-(diethylamino)ethyl]-7-hydroxy-4-trifluoromethyl coumarin (compound IIc) when assaying for metabolism of Ic. Apparent Km and Vmax values were calculated by non-linear kinetics using SigmaPlot 4.0 software."}, "CYP2D6 [6]": {"biological_target": "T1, CYP2D6", "experiment": "CYP2D6 specificity in human liver microsomes with and without quinidine", "assay_type": "biochemical", "design": "purchased GENTEST Corporation P217; host or cells: baculovirus/insect cell (SUPERSOMES)", "conditions": "for pmole Product with quinidine: 5 uM quinidine; for pmole Product with quinidine / pmole Product: 5.0 uM compound I, 1.0 mg/ml HLM; for pmole Product: without quinidine", "procedure": "Human liver microsomes (HLM) contain several drug (xenobiotic) metabolizing cytochromes P450. When HLM are used as an enzyme source, it is critical that the probe biotransformation be specifically catalyzed by the enzyme of interest.\nAfter incubation, 100 ul of the reaction was added to 1.9 ml of 100 mM Tris (pH 9) and the fluorescence was determined with excitation at 390 nm and emission at 460 nm in a spectrofluorometer. The activity was quantitated by comparing to a standard curve of 3-[2-(diethylamino)ethyl]-7-hydroxy-4-methylcoumarin hydrochloride (Table III): […]"}, "CYP2D6 [7]": {"test_system": "CYP2D6", "conditions": "Kupfer et al. 1984; cited from earlier work"}, "[8]": {"substrate": "CCN(CC)CCc1c(C(F)(F)F)c2ccc(OC)cc2oc1=O", "experiment": "Enzyme kinetics with cDNA-expressed CYP2D6 (fluorometric)", "assay_type": "biochemical", "conditions": "cDNA-expressed human CYP2D6, 37° C., pH 7.4", "procedure": "as §1, §2, §3"}, "[9]": {"substrate": "CC[N+](C)(CC)CCc1c(C(F)(F)F)c2ccc(OC)cc2oc1=O", "experiment": "Enzyme kinetics with cDNA-expressed CYP2D6 (fluorometric)", "assay_type": "biochemical", "conditions": "cDNA-expressed human CYP2D6, 37° C., pH 7.4", "procedure": "as §1, §2, §3"}, "[10]": {"substrate": "CC[N+](C)(CC)CCc1c(C)c2ccc(OC)cc2oc1=O", "experiment": "Enzyme kinetics with cDNA-expressed CYP2D6 (fluorometric)", "assay_type": "biochemical", "conditions": "cDNA-expressed human CYP2D6, 37° C., pH 7.4", "procedure": "as §1, §2, §3"}, "[11]": {"substrate": "CCOc1ccc2cc(C#N)c(=O)oc2c1", "experiment": "Enzyme kinetics with cDNA-expressed CYP2D6 (fluorometric)", "assay_type": "biochemical", "conditions": "cDNA-expressed human CYP2D6, 37° C., pH 7.4"}}, "note": "Values joined by “and” are separate entries in the source; they are usually repeats but may differ in a detail not shown here. Equal entries are not always repeated.", "data": [{"molecule": "CCc1cccc2cc(C(O)CNC(C)(C)C)oc12", "note": "(centres unmarked) [Bufuralol]", "values": [{"measurement": "IC50", "setting": "CYP2D6 [1]", "value": "27 µM and 17 µM and 23.3 µM and 104 µM"}]}, {"molecule": "CCOc1ccc2cc(C#N)c(=O)oc2c1", "note": "[CEC, 3-cyano-7-ethoxycoumarin]", "values": [{"measurement": "metabolism by other human cytochromes P450", "setting": "[2]", "value": "significantly metabolized by other human cytochromes P450"}, {"measurement": "specificity of substrate", "setting": "[2]", "value": "poor specificity"}, {"measurement": "enzymatic turnover", "setting": "CYP2D6 [3]", "value": "low enzymatic turnover"}]}, {"molecule": "CC[N+](C)(CC)CCc1c(C)c2ccc(OC)cc2oc1=O", "note": "[Compound Ia, 3-[2-(N,N-diethyl-N-methylammonium)ethyl]-7-methoxy-4-methylcoumarin]", "values": [{"measurement": "catalytic selectivity for dealkylation", "setting": "[4]", "value": "selective for CYP2D6"}, {"measurement": "catalytic turnover", "setting": "CYP2D6 [5]", "value": "highest catalytic turnover"}, {"measurement": "pmole Product with quinidine", "setting": "CYP2D6 [6]; 0 min", "value": 0, "unit": "pmol"}, {"measurement": "pmole Product", "setting": "CYP2D6 [6]; 0 min", "value": 0, "unit": "pmol"}, {"measurement": "pmole Product with quinidine", "setting": "CYP2D6 [6]; 5 min", "value": 0, "unit": "pmol"}, {"measurement": "pmole Product", "setting": "CYP2D6 [6]; 5 min", "value": 3.3, "unit": "pmol"}, {"measurement": "pmole Product with quinidine", "setting": "CYP2D6 [6]; 10 min", "value": 0, "unit": "pmol"}, {"measurement": "pmole Product", "setting": "CYP2D6 [6]; 10 min", "value": 6.3, "unit": "pmol"}, {"measurement": "pmole Product with quinidine", "setting": "CYP2D6 [6]; 15 min", "value": -0.7, "unit": "pmol"}, {"measurement": "pmole Product", "setting": "CYP2D6 [6]; 15 min", "value": 8.5, "unit": "pmol"}, {"measurement": "measurable metabolism / CYP2D6 specificity", "setting": "CYP2D6 [6]; human liver microsomes, quinidine inhibition", "value": "exclusively due to CYP2D6"}]}, {"molecule": "CC[N+](C)(CC)CCc1c(C(F)(F)F)c2ccc(OC)cc2oc1=O", "note": "[Compound Ib, 3-[2-(N,N-diethyl-N-methylammonium)ethyl]-7-methoxy-4-trifluoromethylcoumarin iodide]", "values": [{"measurement": "catalytic selectivity for dealkylation", "setting": "[4]", "value": "also substrates for other human P450 enzymes"}, {"measurement": "catalytic turnover", "setting": "CYP2D6 [5]", "value": "lower catalytic turnover compared to compound Ia"}]}, {"molecule": "CCN(CC)CCc1c(C(F)(F)F)c2ccc(OC)cc2oc1=O", "note": "[Compound Ic, 3-[2-(diethylamino)ethyl]-7-methoxy-4-trifluoromethylcoumarin]", "values": [{"measurement": "catalytic selectivity for dealkylation", "setting": "[4]", "value": "also substrates for other human P450 enzymes"}, {"measurement": "catalytic turnover", "setting": "CYP2D6 [5]", "value": "lower catalytic turnover compared to compound Ia"}]}, {"molecule": "N=C(N)N1CCc2ccccc2C1", "note": "[Debrisoquine]", "values": [{"measurement": "IC50", "setting": "CYP2D6 [1]", "value": "29 µM and 20 µM and 10.6 µM and 105 µM"}]}, {"molecule": "COc1ccc2c(c1)[C@]13CCCC[C@@H]1[C@H](C2)N(C)CC3", "note": "[Dextromethorphan]", "values": [{"measurement": "metabolism by CYP2D6", "setting": "CYP2D6 [7]", "value": "O-demethylated by CYP2D6"}]}, {"molecule": "NCCC(Oc1ccc(C(F)(F)F)cc1)c1ccccc1", "note": "(centres unmarked) [Norfluoxetine]", "values": [{"measurement": "IC50", "setting": "CYP2D6 [1]", "value": "8.4 µM and 1.1 µM"}]}, {"molecule": "CYP2D6 (Homo sapiens) (protein, purchased GENTEST Corporation P217; host or cells: baculovirus/insect cell (SUPERSOMES)) MGLEALVPLAVIVAIFLLLVDLMHRRQRWAARYPPGPLPLPGLGNLLHVDFQNTPYCFDQLRRRFGDVFSLQLAWTPVVVLNGLAAVREALVTHGEDTADRPPVPITQILGFGPRSQGVFLARYGPAWREQRRFSVSTLRNLGLGKKSLEQWVTEEAACLCAAFANHSGRPFRPNGLLDKAVSNVIASLTCGRRFEYDDPRFLRLLDLAQEGLKEESGFLREVLNAVPVLLHIPALAGKVLRFQKAFLTQLDELLTEHRMTWDPAQPPRDLTEAFLAEMEKAKGNPESSFNDENLRIVVADLFSAGMVTTSTTLAWGLLLMILHPDVQRRVQQEIDDVIGQVRRPEMGDQAHMPYTTAVIHEVQRFGDIVPLGVTHMTSRDIEVQGFRIPKGTTLITNLSSVLKDEAVWEKPFRFHPEHFLDAQGHFVKPEAFLPFSAGRRACLGEPLARMELFLFFTSLLQHFSFSVPTGQPRPSHHGVFAFLVSPSPYELCAVPR", "values": [{"measurement": "kcat", "setting": "[8]", "value": 0.0033, "unit": "s⁻¹"}, {"measurement": "Km", "setting": "[8]; other: apparent Km", "value": 3.3, "unit": "µM"}, {"measurement": "kcat", "setting": "[9]", "value": 0.00267, "unit": "s⁻¹"}, {"measurement": "Km", "setting": "[9]; other: apparent Km", "value": 0.8, "unit": "µM"}, {"measurement": "kcat", "setting": "[10]", "value": 0.0167, "unit": "s⁻¹"}, {"measurement": "kcat", "setting": "[11]", "value": 0.000283, "unit": "s⁻¹"}, {"measurement": "Km", "setting": "[11]; other: apparent Km", "value": 67, "unit": "µM"}]}]}
